Where two headings read alike, the source gives them in different places.
Legend:
Arctic Aβ1-38 = target: T1, Arctic Aβ1-38 (Homo sapiens, UniProt P05067, E693G); assay type: biochemical; settings: mouse brain lysate, light 780 nm
T1 construct: The peak intensity decreased by 36%/53%/74% for Arctic Aβ1-38; from tissue; host or cells: cerebral cortex and hippocampus of App knock-in mouse
Method: The brain excised from an eight-month-old App knock-in (App^NL-C-F/NL-C-F) mouse (Alzheimer's model mouse) was separated into the cerebral cortex, the hippocampus, and the residual brain tissues. The cerebral cortex and the hippocampus were homogenized together in a phosphate buffer saline, and the suspension was stored at −80° C. […] At an arbitrary point of time, an arbitrary aliquot of the reaction mixture was diluted with formic acid to a final concentration of 70%, concentrated, and redissolved in a 6 M aqueous solution of urea.

[1] = Conversion of N-benzoyl-Met under different glycerol concentrations, Test Example 8; settings: compound 2 μM, N-benzoyl-Met 2 mM, glycerol-methanol 0, 10, 30, or 50% glycerol, 780 nm, room temperature
Method: To a glycerol-methanol mixed solvent (glycerol: 0, 10, 30, or 50%), furfuryl alcohol or N-benzoyl-Met (2 mM in each case) and the compound E (2 μM) were added, and the mixture was subjected to light irradiation (wavelength: 780 nm) at room temperature, and the concentration of furfuryl alcohol or N-benzoyl-Met was quantified by using a UV absorptiometer with LC/MS 10 minutes, 20 minutes, and 30 minutes after the initiation of light irradiation.

[2] = Stability of catalyst in neutral phosphate buffer without or under light irradiation (HPLC), Test Example 5; assay type: physicochemical; settings: under light irradiation (660 nm)
Method: A neutral phosphate buffer containing a catalyst was incubated without light irradiation or under light irradiation (660 nm), and thereafter ethanol containing benzyl alcohol (as an internal standard) was added thereto, and analysis was performed by using HPLC.

Aβ1-42 = target: T2, Aβ1-42 (Homo sapiens, UniProt P05067); assay: Oxygenation under mouse skin, Test Example 7; assay type: in vivo; settings: microtube with Aβ1-42 20 μM aggregated 3 hours, implanted in back skin, LED 780 nm, 30 minutes
T2 construct: phosphate buffer (pH 7.4)/cell culture solution (containing 0.1% horse serum) (1:3) containing Aβ1-42 (10 μM)
Method: A microtube containing a phosphate buffer containing Aβ1-42 (20 μM, aggregated in advance for 3 hours) and the compound E or a compound 3 [9-(6-bromo-3-methyl-1,3-benzotriazol-3-ium-2-yl)-julolidine] was implanted in the back skin of a wild mouse, and light irradiation with an LED lamp was performed from the outside of the mouse body at a wavelength of 780 nm for 30 minutes (FIG. 10). As a control experiment, another microtube containing the same components (Aβ1-42 (20 μM, aggregated in advance for 3 hours) and the compound E or the compound 3) was directly subjected to light irradiation outside of the mouse body. The reaction mixture was analyzed by using a MALDI-TOF MS, and then subjected to ZipTip treatment for analysis. The percentage of oxygenation ratio was calculated from the percentage of oxygenation ratio under the skin and the oxygenation ratio outside of the skin “[oxygenation ratio under mouse skin/oxygenation ratio outside of mouse skin]×100”.

PC 12 cells [3] = assay: Action on cells through selective oxygenation of Aβ1-42, WST-8 cell viability, Test Example 3; assay type: cell-based, rat; settings: Aβ 10 μM, compound E 1 or 3 μM, 48 hours
Method: A phosphate buffer saline (pH 7.4) containing Aβ (40 μM) was incubated at 37° C. for 3 hours. Subsequently, the compound E was added thereto (4 or 12 μM). A culture medium for rat adrenal medulla-derived pheochromocytoma PC 12 cells (purchased from RIKEN, Japan) seeded on a poly-D-lysine-coated 96-well plate was replaced with 75 μL of a Dulbecco's modified Eagle's medium containing 0.1% horse serum, and the culture was incubated in a 5% CO2 atmosphere at 37° C. for 1 day, and 25 μL of the phosphate buffer saline (pH 7.4) containing Aβ and the compound E was then added thereto (final volume: 100 μL, final concentration of Aβ: 10 μM, final concentration of compound E: 1 or 3 μM). […] Finally, the Cell Count Reagent SF (10 μL: purchased from NACALAI TESQUE, INC.) containing WST-8 was added, and the culture was incubated in a 5% CO2 atmosphere at 37° C. for 3 hours, and thereafter the cell viability was determined from the absorbance at 450 nm (reference wavelength: 655 nm).
From the results shown in FIG. 4, an attempt was made to examine whether the toxicity of Aβ1-42 can be reduced through oxygenation of the Aβ1-42 in the presence of cells. […] The cell viability was determined through measurement of the absorption by WST-8 at 450 nm by using a plate reader.

PC 12 cells [4] = assay type: cell-based
Method: Rat pheochromocytoma PC 12 cells were suspended with DMEM containing 5% horse serum and 10% fetal bovine serum, seeded in a poly-D-lysine-coated 96-well plate at a concentration of 10,000 cells per well, and incubated in a 5% carbon dioxide atmosphere at 37° C. for 3 days. After the solvent was removed, the cells were washed with 150 μL of serum-free DMEM, and DMEM (75 μL) containing 0.1% horse serum was added thereto. Thereafter, the 96-well plate was incubated in a 5% carbon dioxide atmosphere at 37° C. for 1 day for use in oxygenation reaction. In oxygenation reaction, the compound E (100 μM dimethyl sulfoxide solution) was added to a phosphate buffer saline containing Aβ (aggregated in advance for 3 hours, 40 μM) and 25 μL of the above cell solution (final concentration of Aβ: 10 μM, final concentration of compound E: 1 μM). The mixture was irradiated with an LED (wavelength: 780 nm) at a distance of approximately 5 cm at 37° C. for 5 minutes. The cells were incubated in a 5% carbon dioxide atmosphere at 37° C. for 48 hours. The cell viability was measured by using the Cell Count Reagent SF (NACALAI TESQUE, INC., Kyoto, Japan) with WST-8 (2-(2-methoxy-4-nitrophenyl)-3-(4-nitrophenyl)-5-(2,4-disulfophenyl)-2H-tetrazolium).
b: LC50 (dark) indicates the toxicity of a compound itself, and LC50 (light) indicates the phototoxicity of a compound. The PC 12 cells were placed in dark or subjected to photocatalytic treatment under light irradiation (wavelength: 660 nm), and incubated at 37° C. for 5 minutes, and then in a 5% carbon dioxide atmosphere at 37° C. for 48 hours, for which the cell viability was analyzed (n=5, mean±SEM).
b: The PC 12 cells were treated together with a photocatalyst (1 μM) at 37° C. for 5 minutes in dark or under light irradiation (wavelength: 780 nm), and thereafter the cell viability was analyzed (n=3, mean±SEM).

O=C(O)CCCCCN1CCCc2cc(/C=C/C3=[O+][B-](F)(C(F)(F)C(F)(F)F)OC(/C=C/c4cc5c6c(c4)CCCN6CCC5)=C3Br)ccc21 (stereo not drawn) [Compound E]
decrease of peak intensity (conversion) of Arctic Aβ1-38 (Arctic Aβ1-38; 30 minutes): 36%
decrease of peak intensity (conversion) of Arctic Aβ1-38 (Arctic Aβ1-38; 60 minutes): 53%
decrease of peak intensity (conversion) of Arctic Aβ1-38 (Arctic Aβ1-38; 150 minutes): 74%
oxygenation of N-benzoyl-Met [1]: accelerated as the viscosity of the solvent was higher
stability of catalyst (ranking) [2]: stability was higher
percentage of oxygenation ratios [oxygenation ratio under mouse skin/oxygenation ratio outside of mouse skin]×100 (Aβ1-42): 65%
cell viability with Aβ1-42 and compound E (PC 12 cells [3]; under LED irradiation 660 nm, 10 mW, 5 minutes): the cell viability was significantly improved
cell viability with Aβ1-42 and compound E (PC 12 cells [3]; without light irradiation): significant cell death
CC50 (PC 12 cells [4]): > 10 µM

From patent US10669287B2, “Curcumin-boron complex and pharmaceutical containing same” (JAPAN SCIENCE AND TECHNOLOGY AGENCY, priority 2016, dated 2020)
